The test system of assay [1] is thrombin generation (TG). It counts as biochemical, human. To be noted: 2 μM hirugen, PRP with CTI and anti-FXI MoAb. On the procedure: TG in PRP or reconstituted PRP was evaluated as known to those skilled in the art. Native PRP was prepared from blood collected into final 12.9 mM trisodium citrate by centrifugation at 250 g for 10 min at 25° C. The platelet count was adjusted to 180×10^3/μl by dilution with homologous PPP obtained by centrifuging PRP for 10 min at 1,500 g. CTI was added at 30-50 μg/ml depending on calibrated potency as assessed by FXIIa inhibition. Reconstituted PRP was prepared with washed platelets prepared from normal PRP by adding ⅕th volume of acid citrate-dextrose (71 mM citric acid, 85 mM trisodium citrate, and 111 mM dextrose, pH 4.5) and 5 U/ml apyrase; following centrifugation at 1,500 g for 10 minutes at 25° C., the platelet pellet was resuspended into PPP lacking FVII (George King Bio-Medical) or FIX (Haematologic Technologies) to give a final platelet count of 180·103/μl PRP was mixed with varying concentrations of rTF and/or 20 pM FIXa in 96-well microtiter plates. The reaction was started by adding 18 mM CaCl2 with 360 μM of the thrombin substrate benzyloxycarbonyl-glycyl-glycyl-L-arginine coupled to the fluorogenic group 7-amido-4-methylcoumarin (Gly-Gly-Arg-AMC; Bachem Americas, Torrance, Calif.). Fluorescence was measured continuously at 37° C. for up to 40 min in a spectrofluorometer (355/460 nm excitation/emission). The rate of fluorescence intensity increase as a function of time (dF/dt) was calculated with Turbo Delphi 2006 (Borland Software Corporation, Austin, Tex.) and converted to thrombin-equivalent concentration (nM) using a calibration curve. The endogenous thrombin potential (ETP) of samples, i.e. total generated thrombin activity, was determined from the area under the TG curve. When specified, TG was measured with a discontinuous 2-stage assay with a detection limit of 5 pM. For this, TG was induced by 0.15 pM rTF and 18 mM CaCl2 in reconstituted FVII-deficient PRP including 30 μg/ml CTI with 400 pM WT FVIIa or iFVIIa without or with 20 pM FIXa. After incubation for up to 11 min at 37° C., reactions were terminated by adding 20 mM EDTA and generated thrombin was measured using the highly sensitive thrombin substrate H-D-CHA-Ala-Arg-AMC.2AcOH (Pefafluor TH, Pentapharm, Basel, Switzerland) at 50 μM concentration. In other experiments, TG was induced by TFiFVIIa-FXa-TFPI or TF-iFVIIa-FXa-NAPc2. These stable complexes were pre-formed by incubating 5 nM FXa, 10 nM TF, 10 nM iFVIIa and 40 nM TFPI or NAPc2 in the presence of 2.5 mM CaCl2 for 2 min at 37° C. Complexes were added into FVII-deficient PRP, followed by incubation for 8 min at 37° C.
PRP was prepared from blood collected into trisodium citrate (final concentration 0.0129 M) by centrifugation for at 250 g for 10 min at 25° C.; the platelet count was adjusted at 180.103 per μl by diluting with homologous platelet-poor plasma (PPP) obtained by centrifuging PRP for an additional 10 min at 1,500 g. When indicated, CTI was added at 30 to 50 μg/ml depending on calibrated potency measured by FXIIa inhibition. Reconstituted PRP was prepared by adding normal washed platelets into PPP (without or with CTI) lacking FVII, FVIII (both from George King Bio-Medical, Overland Park, Kans.) or FIX (Haematologic Technologies). […] generation in PRP was measured as described by Hemker et al. 53 μl of PRP was mixed in 96-well microtiter plates with 15 μl of a solution containing rTF and/or one of the intrinsic coagulation pathway proteases—FXIIa, FXIa or FIXa—to achieve the indicated final concentrations. Antibodies or inhibitors were also added at this point at the concentration indicated for each specific case. The reaction was started by adding between 15 and 20 μl of 100 mM CaCl2 and 2 mM fluorogenic substrate, benzyloxycarbonyl-glycyl-glycyl-L-arginine-7-amido-4-methylcoumarin (Gly-Gly-Arg-AMC; Bachem Americas, Torrance, Calif.).

In assay [2] the test system is thrombin generation (TG). As to the kind of experiment: TG in FVII-deficient reconstituted PRP with FVIIa WT or mutants. To be noted: FVII-deficient plasma. It counts as biochemical, human.
Procedure: (A) Phospholipid-free assay of FX (1 μM) to FXa conversion by the complex of 2 μM soluble rTF with 10 nM FVIIa WT, T99Y or E154A. (B) FXa generation by 50 pM phospholipid-reconstituted rTF with 200 pM FVIIa WT, T99Y or E154A added to 135 nM FX, 0.7 nM FVIII, 3 nM FV and 200 nM lepirudin (2 min, n=2-3; 4 min, n=4-5; 6 min, n=6-9). (C) WB (representing 2) of FVIII activation in reactions of 50 pM TF, 200 pM FVIIa WT or mutants, 0.7 nM FVIII, 3 nM FV and 200 nM lepirudin without/with 135 nM FX, incubated for 120 s at 37° C. […] (E) FXa generation measured in reactions as in (D) without TFPIα and in the presence of 10 nM FIXa (left, incubation 180 s; n=5-6 except=2 for E154A) or 90 nM FIX (right, incubation for 360 s; n=5-6). […] Differences were evaluated by the ANOVA/Tukey test; results at 4 and 6 min in (B) and in reactions with FIX in (E, right) were analyzed after transformation as y=log 10 y (**P<0.01, ***P<0.001).
Thrombin was quantified with a fluorogenic substrate for calculation of % inhibition. […] Endogenous thrombin potential (ETP, right) was calculated from the area under the TG curve (n=2). […] Differences were evaluated with the ANOVA/Tukey test (performed after log 10 transformation of the data shown in E); *P<0.05, ***P<0.001. […]
For assay [3], the target named is thrombin (Homo sapiens, UniProt P00734). To be noted: 0.5 nM FIIa, 50 pM rTF, 180 s.
Procedure: FVIII activation by stable FXa complexes with TF-FVIIa was tested in reactions containing FVIII, FV and lepirudin with or without TFPIα, with incubation for 30-120 s at 37° C. […] The inhibitory effect of hirugen on FVIIIa generation by FIIa was tested in reactions with 0.5 nM FIIa incubated with 50 pM rTF and FVIII for 180 s at 37° C.
Assay [4] relates to FVIII. Nature of the assay: FVIII activation in rTF/FVIIa-initiated reactions with FX, prothrombin, FVIII, FV (immunoblot). To be noted: thrombin blocked with 4 μM DAPA. (In general: Immunoblotting shows a protein as a band on a membrane.)
Procedure: Quantification of generated FVIIIa-A1 calibrated with known quantities of the fragment. (B) FVIIIa activity calculated from FXa generation in reactions as in (A), but with 10 nM FIXa added and incubated for 180 s at 37° C. (n=4-12). FXa generation depend-ent on FVIIIa-FIXa activity was calculated by subtracting FXa generated by FVIIa and FIXa added individually from that by FVIIa/FIXa added together. (C) FVIIIa activity generated and calculated in reaction as in (A, B) but with the addition of 10 nM TFPIα. Results in A (bottom), B and C—shown as 25th-75th percentile bars, min-to-max whiskers, line at the median; or min-to-max floating bars with line at the mean when n≤3—were analyzed by ANOVA/Tukey tests. ***P<0.001; NS, not significant.
Reactions in 50 mM Tris-buffered saline, pH 7.4, with 0.1% bovine serum albumin included 0.7 nM FVIII, 3 nM FV, 135 nM FX and 1 μM prothrombin without/with 4 μM DAPA. TFPI and other inhibitors were added as indicated. […] After quenching the reaction with 10 mM EDTA, generated FXa was measured with S-2765 (180 μM). FVIIIa procoagulant activity was measured as FIXa-dependent FXa generation; FVIIIa procoagulant activity generated by the nascent TF-FVIIa-FXa complex was calculated by subtracting the amount of FXa produced in reactions initiated by FVIIa and FIXa individually from that produced in reactions initiated by FVIIa/FIXa combined. […]

In the case of 63-O-Sulfo-Tyr-hirudin [hirugen], in assay [1], the “effect on FIXa-dependent TG” value is reported as “blocked” and the “effect on TG by FIXa combined with rTF” value is given as “failed to inhibit”. Moreover, in assay [2], the “effect on FIXa-initiated TG” value is “abolished”. Further, in assay [3], the “effect on FVIII activation by thrombin” value is on record as “dose-dependently inhibited”.
As for `CCC1CCN(C(=O)C(CCCN=C(N)N)NS(=O)(=O)c2cccc3c(N(C)C)cccc23)CC1` (centres unmarked) [DAPA, dansylarginine N-(3-ethyl-1,5-pentanediyl)amide], in assay [4], the FVIIIa still detectable is reported as approximately 15%.

(Values after US11136370B2, “Compositions and methods for thrombin generation assay” (The Scripps Research Institute, priority 2016, dated 2021).)
